Molecules are shown by their SMILES.

A short description of the series: RP, Waters ACQUITY UPLC BEH C18, 50 × 2.1 mm, 1.7 µm, 40 °C, 0.6 mL/min, estimated dead time 0.18 min; A: water + 0.1% formic acid, pH 3; B: acetonitrile + 0.1% formic acid, pH 3; gradient (min/%B) 0/5 7/100 8/100. The note with it: stereoisomer not certain.

Consider `C/C(=C\CC/C=C(\C)CC/C=C(\C)CCC(O)C(C)(C)O)CC/C=C(\C)CCC(O)C(C)(C)O` (stereo not given), for which the LC retention time is 5.34 min.
`COc1c(-c2c(C)cc(OC)c3c(OC)cccc23)c(O)cc2c1C(C)NC(C)C2` (stereo not given): the LC retention time was 2.1 min.
For `CC1CC2CCCC3N4C(=O)CCCC4CC(C1)N23` (stereo not given), the LC retention time is 0.978 min.
On to `COc1cccc2nc3occc3c(OC)c12` [4,5-dimethoxyfuro[2,3-b]quinoline], for which the LC retention time is 2.62 min.
Then `CC(C)(O)/C=C/C(=O)[C@](C)(O)[C@H]1[C@H](O)C[C@@]2(C)C3CC=C4C(C=C(O)C(=O)C4(C)C)[C@]3(C)C(=O)C[C@]12C` (stereo not given in full), with 3 min.
Then `CC(=O)OCC1=C2C(OC(=O)/C=C(/C)COC(C)=O)CC(C)C(=O)CC(=O)C3(C)OC3C2OC1=O` (stereo not given), with 3.5 min; and `Cn1c(N)nc2c(ncn2C)c1=O` [2-amino-1,9-dimethyl-6,9-dihydro-1H-purin-6-one], with 0.226 min.
For `COc1cc(CCN(C)C)c2ccc3cc4c(c5c3c2c1OC5)OCO4` the value was 2.24 min; for `CC(=O)OC1CC(O)C23COCC1(C)C2CC(O)C1(C)C3C(=O)C(O)C2(C)C(c3ccoc3)CC3OC321` (stereo not given), 2.27 min; for `CCCCCCCCCCCCO[C@@H]1O[C@@H](C)[C@H](OC(C)=O)[C@@H](O[C@@H]2O[C@@H](C)[C@H](OC(C)=O)[C@@H](O[C@@H]3O[C@@H](C)[C@H](OC(C)=O)[C@@H](O)[C@H]3O)[C@H]2OC(C)=O)[C@H]1O`, 6.32 min.
For the compound `COc1ccc(Cc2nccc3cc(OC)c(OC)cc23)cc1OC` [1-[(3,4-dimethoxyphenyl)methyl]-6,7-dimethoxyisoquinoline], the LC retention time is 1.79 min.
For `C/C=C1/CN2CCc3c([nH]c4ccccc34)[C@@](CO)(C(=O)OC)[C@H]1CC2` the value was 1.32 min.
With `C=C(C(=O)C(O)C(C)C1C(OC(C)=O)CC2(C)C3CCC4C(C)C(=O)CCC45CC35CCC12C)C(C)CO` (stereo not given), the LC retention time is 4.6 min.
With `Oc1ccc(C2c3c(O)cc(O)cc3C3C(c4ccc(O)cc4)c4c(O)cc(O)cc4C23)cc1` (stereo not given), the LC retention time is 1.77 min.
As to `CC1=C(O)C(=O)C=C2C1=CC=C1[C@@]2(C)CC[C@@]2(C)[C@@H]3C[C@](C)(C(=O)O)CC[C@]3(C)CC[C@]12C`, the LC retention time was 5.33 min.
Then `C=C1COC(=O)C12C[C@@]1(C)C([C@@H](OC(=O)/C=C/SC)CC[C@@H]1C)[C@H]2OC(=O)/C(C)=C\C` (stereo not given in full), with 4.71 min; and `COc1c2occc2cc2ccc(=O)oc12` [9-methoxy-7H-furo[3,2-g]chromen-7-one], with 2.49 min; and `CC1=C2CC3(C)C(C)CCCC3CC2(O)OC1=O` (stereo not given), with 3.6 min.
`CC(O)c1cncc2c(=O)n3c(cc12)-c1[nH]c2ccccc2c1CC3` (stereo not given): the LC retention time was 3.25 min.
Turning to `CC1CCC2(OC1)OC1CC3C4C(O)C(=O)C5(O)C(O)C(O)C(O)C(O)C5(C)C4CCC3(C)C1C2C` (stereo not given), the LC retention time was 3.19 min.
`C=C1[C@@H](O)C[C@@H]2[C@](C)(CCC[C@@]2(C)C(=O)O)[C@H]1CC1C(C)=CCC2C(=O)C(OC)=CC(=O)C21c1cc(=O)c2c(O)cc(O)cc2o1` (stereo not given in full): the LC retention time was 2.95 min.
Turning to `CCCCCCCCCCCCCCC[C@@H]1CCC[C@@H](C)N1` [(2R,6R)-2-methyl-6-pentadecylpiperidine], the LC retention time is 5.12 min.
For `C=C(C(=O)C(O)C(C)C1C(OC(C)=O)CC2(C)C3CCC4C(C)C(=O)C=CC45CC35CCC12C)C(C)C` (stereo not given) the value was 5.56 min; for `CCC(C)C(=O)C1=C(O)C2(CC=C(C)C)CC(CCC(C)(C)NC(C)=O)C(C)(C)C(C(CC(=O)O)c3ccccc3)=C2OC1=O` (stereo not given), 4.87 min; for `COc1cc(CC[N+](C)(C)C)c2ccc3cc4c(c5c3c2c1OC5)OCO4`, 0.975 min.
For `C=CCc1ccc(O)c(-c2cc(CC=C)ccc2O)c1` [5,5'-bis(prop-2-en-1-yl)-[1,1'-biphenyl]-2,2'-diol] the value was 2.78 min; for `CC1CCC2(C)C(CCC(O)C2(C)O)C1(C)CC(O)c1ccoc1` (stereo not given), 5.61 min.
As for `Oc1ccc(C2Oc3cc(O)cc4c3C2c2cc(O)cc(O)c2C(c2ccc(O)cc2)C2c3cc(O)cc(O)c3C(c3ccc(O)cc3)C42)cc1` (stereo not given), the LC retention time is 2.23 min.
For `CC1CCC2(C)C(CCC3OC32C)C1(C)CC(=O)c1ccoc1` (stereo not given), the LC retention time is 3.41 min.
Then `CCC(C)C(=O)C1=C(O)C2(CC=C(C)C)CC(CCC(C)(C)O)C(C)(C)C(C(CC(=O)O)c3ccccc3)=C2OC1=O` (stereo not given), with 5 min.
Turning to `C=C1CCC2(OC1)OC1CC3C4C(O)C(=O)C5(O)C(O)C(O)C(O)C(O)C5(C)C4CCC3(C)C1C2C` (stereo not given), the LC retention time is 3.04 min.
On to `C/C=C1/CN(C)[C@@H]2Cc3c([nH]c4ccccc34)C(=O)C[C@H]1C2C(=O)OC` (stereo not given in full), for which the LC retention time was 1.4 min.
Regarding `CC1(C(=O)O)CCCC2(C)C3CCC4CC3(C=C4CO)CCC12` (stereo not given), the LC retention time is 3.51 min.
On to `CC1(C)CCC[C@]2(COC(=O)/C=C/c3ccc(O)c(O)c3)C1CC[C@@]13C[C@@H](CCC12)[C@@](O)(CO)C3` (stereo not given in full), for which the LC retention time is 3.16 min.
For `COc1ccc(C2Oc3c(c(O)cc(O)c3C3C(=O)c4c(O)cc(O)cc4OC3c3ccc(O)cc3)C(=O)C2O)cc1O` (stereo not given) the value was 1.69 min.

The values are drawn from the RepoRT retention time repository.
